In US10487117B2, “Antimicrobial peptide for nosocomial infections” (priority 2015, dated 2019):
Several values for one entry are separate records, joined by “and”; a condition that tells them apart may be missing. Equal values may be shown once. Residues, ends and D or L forms follow the SMILES beside them.

B1: RNase 3: Recombinant human RNase 3, also known as eosinophil cationic protein (ECP), parental protein of the peptide (protein, UniProt P12724 28-160, looked up)
Eosinophil cationic protein: RPPQFTRAQWFAIQHISLNPPRCTIAMRAINNYRWRCKNQNTFLRTTFANVVNVCGNQSIRCPHNRTLNNCHRSRFRVPLLHCDLINPGAQNISNCTYADRPGRRFYVVACDNRDPRDSPRYPVVPVHLDTTI

What was measured:
planktonic P. aeruginosa [1] = experiment: SYTOX Green membrane permeabilization assay, planktonic; format: cell-based, Pseudomonas aeruginosa; conditions: 10% Triton X-100 as maximum reference
Procedure: Further insight into the membrane-permeabilizing effect of the selected AMPs against P. aeruginosa was evaluated by the Sytox Green assay. Local membrane disturbances allow the cell uptake of the fluorescent Sytox Green dye that subsequently stains the cell nucleic acids; the fluorescence increase is registered to monitor the cell membrane permeabilization. Therefore, the half permeabilization action (ED50) was measured, and the total permeabilization activity expressed as a percentage (Table 5). […] On the other hand, WY-12 and CA-M required a 6- to 7-fold greater concentration than RNase 3 to produce half of their permeabilizing effect.
(§1) Membrane permeabilization was followed using the method SYTOX Green Fluorescence membrane permeabilization assay. In the planktonic assay, bacterial cells were grown at 37° C. to an OD600=0.2, centrifuged at 5000×g for 5 min, and resuspended in 1×PBS to an OD600=0.2. An aliquot of 200 μl was then transferred to a microtiter plate. For biofilm assay, 24 h formed P. aeruginosa biofilm in a 96-well microtiter plate were washed three times with sterile PBS. SYTOX Green was added to a final concentration of 1 μM and incubated 15 min in darkness. Changes in the fluorescence were continuously recorded after addition of a serially diluted protein/peptides from 50 to 0.1 μM in a Victor3 plate reader. The peptide concentration required to achieve half of total and total membrane permeabilization achieved after 40 min was estimated from nonlinear regression analysis as previously described (Pulido D. et al. Antimicrob Agents Chemother 2013). A maximum reference value was taken for Triton X-100 at 10%.

[2] = system: established P. aeruginosa biofilms; experiment: DiSC3(5) membrane depolarization assay on biofilm; format: cell-based, Pseudomonas aeruginosa; conditions: maximum percentage at final incubation time, 10% Triton X-100 reference
Procedure: (§2) Membrane depolarization was followed using the method described earlier (Torrent M. et al. 2008). Briefly, bacterial cells were grown at 37° C. to an OD600=0.2, centrifuged at 5000×g for 7 min, washed with 5 mM Hepes at pH 7.2 containing 20 mM glucose, and resuspended in 5 mM Hepes-KOH, 20 mM glucose, and 100 mM KCl at pH 7.2 to an OD600=0.05 and 200 μl were transferred to a microtiter plate for planktonic assays. For biofilm assay, 24 h formed P. aeruginosa biofilm in a 96-well microtiter plate were washed three times with sterile PBS. Afterwards P. aeruginosa biofilms were washed with 5 mM Hepes at pH 7.2 containing 20 mM glucose, and rinsed in 5 mM Hepes-KOH, 20 mM glucose, and 100 mM KCl at pH 7.2. In both cases, DiSC3(5) was added to a final concentration of 0.4 μM and changes in the fluorescence were continuously recorded after addition of peptides at 10 μM in a Victor3 plate reader. A maximum reference value for total depolarization is calculated for Triton X-100 at 10%. Alternatively, changes in the fluorescence were continuously recorded after addition of a serially diluted protein/peptides from 50 to 0.1 μM. The peptide concentration required to achieve half of total and total membrane depolarization after 40 min incubation time was estimated from nonlinear regression analysis as previously described (Torrent M. et al. 2010)
(§3) Thereupon, the antimicrobial mechanism of action of the RNase 3 derived peptide on P. aeruginosa biofilms was further characterized with the depolarization and permeabilization assays. As applied for the P. aeruginosa planktonic culture, the fluorescent DisC3(5) assay was also used here in order to monitor the depolarization activity of the studied protein and peptides against established biofilms. Therefore, we have measured the half depolarization action (ED50), and the total depolarization activity expressed as a percentage (Table 7). […] Similar results were obtained for the Sytox Green permeabilization assay, where the total permeabilization effect was hindered for all the AMPs tested, and between two to ten times higher concentrations were required to achieve half of the biofilm cell permeabilizing effect in comparison to the planktonic cells.

planktonic P. aeruginosa [3] = experiment: DiSC3(5) cytoplasmic membrane depolarization assay, planktonic; format: cell-based, Pseudomonas aeruginosa; conditions: 10% Triton X-100 as maximum reference
Procedure: To further investigate the antimicrobial mechanism of action of the peptide, its ability to depolarize P. aeruginosa membranes was evaluated. Depolarization activity was analyzed by the DiSC3(5) assay (Table 5). DiSC3(5) is a fluorescent probe, which is sensitive to membrane potential. The DiSC3(5) fluorescence is quenched upon interaction with intact cell membranes. When the membrane potential is lost, the probe is released to the medium, resulting in an increase of fluorescence that can be recorded as a function of peptide concentration. Thus, the half depolarization action (ED50) was evaluated, defined as the peptide concentration needed to achieve a half-depolarization effect, and the total depolarization activity at final incubation time (Table 3).
as §2

[4] = system: pre-established P. aeruginosa biofilm; experiment: Biofilm eradication assay, crystal violet staining; format: cell-based, Pseudomonas aeruginosa; conditions: 24 h formed biofilm; 4 h at 37° C.; 10% Triton X-100 as maximum reference
Procedure: Following, the biofilm eradication activity was determined (FIG. 1 and Table 6). […] Moreover, the biofilm eradication activity of all the tested reference peptides was well above the maximum concentration tested (50 μM), except for RN3(5-17P22-36) which was able to eradicate the biofilm close to 50 μM.
(§4) Biofilm formation assay was modified from the previously described protocol (Huedo P. et al. 2014). Briefly, overnight cultures of P. aeruginosa were centrifuged at 5000×g for 5 min, washed and adjusted to an OD600=0.1 in tryptic soy medium (TSB). Two hundred microliters of the bacterial suspension were dispensed in each well of a polystyrene 96-well microtiter plate (Greiner Bio-one, France). The plate was incubated at 37° C. on an orbital shaker (30 rpm). The media was exchanged with fresh pre-warmed TSB after 4 h, in order to remove the non-attached bacteria. After 24 h incubation, the formation of biofilm was then evaluated using the crystal violet staining technique (Stepanovic S. et al. 2000). Briefly, the plates were washed three times with PBS, fixed at 60° C. for 1 h, and stained for 15 min with 200 μl of 0.1% crystal violet. After the dye was discarded, plates were rinsed in PBS and allowed to dry for 30 min at 37° C. Crystal violet was dissolved in 250 μl of 95% ethanol for 15 min, and the OD570 of the extracted dye was measured using a Victor3 plate reader (Perkin-Elmer, Waltham, Mass.).
Biofilms were grown as above. Twenty-four hour formed P. aeruginosa biofilm was washed three times with sterile PBS, and rinsed with 10 mM sodium phosphate buffer pH 7.5. Each well was treated with increasing protein/peptide concentrations (from 0.01 to 50 μM) and incubated at 37° C. for 4 h. The biofilm eradication was then evaluated using the crystal violet staining technique (Stepanovic S. et al. 2000). The ability of the antimicrobial peptides to disperse and reduce the biofilm mass of preformed biofilms was calculated. The peptide concentration required to achieve total preformed biofilm eradication after 4 h incubation time was estimated. A maximum reference value was taken for Triton X-100 at 10%. The minimum biofilm eradication concentration (MBEC), defined as the protein/peptide concentration where the 99.9% of the biofilm mass is eradicated was estimated.

[5] = system: established P. aeruginosa biofilms; experiment: SYTOX Green membrane permeabilization assay on biofilm; format: cell-based, Pseudomonas aeruginosa; conditions: maximum percentage at final incubation time, 10% Triton X-100 reference
Procedure: as §1, §3

[6] = Biofilm cell mortality, BacTiter-Glo luminescent assay; format: cell-based, Pseudomonas aeruginosa; conditions: 24 h formed biofilm; 4 h at 37° C.; 10% Triton X-100 as maximum reference; N.D. = not detected at 50 μM; read-out: Biofilm cell mortality (%max)
Procedure: (§5) Bacterial viability was assayed using the BacTiter-Glo™ microbial cell viability kit. Briefly, protein/peptides were dissolved in 10 mM sodium phosphate, 0.1M buffer, pH 7.5, serially diluted from 50 to 0.1 μM and tested in a 96-well microtiter plate containing P. aeruginosa planktonic (OD600˜0.2) or 24 h formed biofilm for 4 h at 37° C. Fifty microliters of BacTiter-Glo™ reagent was added to each well according to the manufacturer's instructions and incubated at room temperature for 15 min. Luminescence was read on a Victor3 plate reader with a 3-s integration time. Fifty percent (ED50) and total inhibitory concentrations were calculated by fitting the data to a dose-response curve.
(§6) As a first approach, the biofilm cell viability was monitored using the BacTiter-Glo™ luminescent assay. Therefore, the antimicrobial action of the studied AMPs was determined on already established P. aeruginosa biolfilms (FIG. 1 and Table 6). […] However, for all the active peptides, the concentrations needed to produce an equivalent effect in biofilms were between 2 to 10 times higher than in planktonic cultures. […] At the same time, we applied the crystal violet technique to assess the peptide ability to disperse pre-established P. aeruginosa biofilms.
as §4

planktonic P. aeruginosa [7] = format: cell-based, Pseudomonas aeruginosa; conditions: planktonic P. aeruginosa; 4 h at 37° C.; mean ± SEM; N.D. = not detected at 50 μM; read-out: IC50 (50% bacterial viability)
Procedure: The microbial cell viability was then assayed using the BacTiter-Glo™ luminescent kit. […] No cell reduction was detected for the peptide GL-13 even for the maximum concentration assayed (50 μM).
as §5

[8] = system: LPS (lipopolysaccharides) from P. aeruginosa; experiment: LPS binding assay, BODIPY TR cadaverine (BC) displacement; design: species or system Pseudomonas aeruginosa; conditions: 100% = total displacement of the dye; mean ± SEM
Procedure: Following, LPS binding affinity was monitored by a fluorometric assay which measures the competitive displacement of a cadaverine fluorescent probe (BC) by the protein and peptides. The half LPS binding affinity (ED50), defined as the AMP concentration needed to achieve half of BC displacement, and the total LPS binding affinity, expressed as a percentage, were determined (Table 4). Interaction with negatively charged surfaces of bacteria is the first step for cationic peptides to reach the bacterial membranes and exert their antimicrobial action.
LPS binding was assessed using the fluorescent probe BODIPY TR cadaverine (BC) as previously described (Pulido D. et al. Febs J 2013). BC binds strongly to native LPS, specifically recognizing the lipid A portion. When a protein that interacts with LPS is added, BC is displaced from the complex and its fluorescence is increased, decreasing its occupancy factor. LPS-binding assays were carried out in a 10 mM Hepes buffer at pH 7.5. The displacement assay was performed using a 96 well microtiter plate containing stirred mixture of either LPS (10 μg/mL) and BC (10 μM). Protein/peptides were serially diluted from 10 to 0.1 μM. Fluorescence measurements were performed on a Victor3 plate reader (Perkin Elmer, Waltham, Mass.). The protein/peptide concentration required to achieve half of total and total BC displacement was estimated from nonlinear regression analysis as previously described (Wood S. J. et al. 2004)

[9] = system: pre-established P. aeruginosa biofilm; experiment: Biofilm cell mortality, BacTiter-Glo luminescent assay; format: cell-based, Pseudomonas aeruginosa; conditions: 24 h formed biofilm; 4 h at 37° C.; 10% Triton X-100 as maximum reference; N.D. = not detected at 50 μM
Procedure: as §5, §6, §4

Molecule | Permeabilization %max (planktonic P. aeruginosa [1]) | Depolarization Mean % ± SEM [2] | Depolarization %max (planktonic P. aeruginosa [3]) | Biofilm eradication (%max) [4] | Permeabilization Mean % ± SEM [5] | mortality [6] | IC50 (planktonic P. aeruginosa [7]) | LPS binding %max (percentage of maximum displacement) [8] | Biofilm cell mortality (%max) [9]
CC[C@H](C)[C@H](NC(=O)[C@H](Cc1ccccc1)NC(=O)[C@@H](NC(=O)[C@H](Cc1ccccc1)NC(=O)[C@H](CCCNC(=N)N)NC(=O)[C@H](CCCCN)NC(=O)[C@H](CCCNC(=N)N)NC(=O)[C@H](CCCCN)NC(=O)[C@H](Cc1c[nH]c2ccccc12)NC(=O)[C@H](CC(C)C)NC(=O)[C@@H](NC(=O)[C@@H](N)Cc1ccc(O)cc1)C(C)C)[C@@H](C)CC)C(N)=O [WY-12, YVLWKRKRFIFI-NH2] (H-YVLWKRKRFIFI-NH2; N-terminus assumed) | 39.43 ± 1.19% | 32.58 ± 1.87% | 44.02 ± 4.01% | 38.36 ± 2.36% | 18.91 ± 2.23% | 39.7 ± 8.93% |  |  | 
B1 | 45.67 ± 2.29% | 46.11 ± 3.21% |  |  | 39.4 ± 2.88% |  | 840 ± 30 nM | 99.85 ± 9.51% | ~50% and 67.31 ± 0.79%
